Here are results for four molecules from ChEMBL document CHEMBL5252583, “Cancer cell growth suppressibility of ω-3 fatty acid whose carboxy group converted to ester group” (Bioorg Med Chem Lett, 2023).

One data set deals with HCT-116. Kind of data set: Antiproliferative activity against human HCT-116 cells assessed as cell growth inhibition at 500 uM measured after 24 hrs by alamar blue assay relative to control. The class given is functional.
The subject of the next data set is MIA PaCa-2. Kind of data set: Antiproliferative activity against human MIA PaCa-2 cells assessed as cell growth inhibition at 500 uM measured after 24 hrs by alamar blue assay relative to control. The format is functional.
A short description of data set [1]: Drug uptake in human MIA PaCa-2 cells assessed as increase in incorporation of compound into lipid droplets by measuring absorbance at 50 uM incubated for 24 hrs by Oil Red O staining based fluorescence microscopic analysis (reference value: 2.35 +/- 0.11 10^-2No_unit). The class given is ADME, cell-based. To be noted: mia paca-2, 24 h.
The subject of the next data set is MCF7. The data set is described as follows: Antiproliferative activity against human MCF7 cells assessed as cell growth inhibition at 500 uM measured after 24 hrs by alamar blue assay relative to control. The format is functional.

With `CC/C=C\C/C=C\C/C=C\CCCCCCCC(=O)Oc1ccccc1`, the inhibition at 500 µM in the data set with HCT-116 came to 36%; in the data set on MIA PaCa-2, 23%; with MCF7, 48%. For the same molecule, the Activity in data set [1] is given as 4.12 10^-2No_unit.

`CC/C=C\C/C=C\C/C=C\CCCCCCCC(=O)Oc1ccc(OC)cc1`: the inhibition at 500 µM worked out at 40% in the data set with HCT-116, 26% in the data set with MIA PaCa-2 and 49% with MCF7. Also, the Activity in data set [1] was 3.94 10^-2No_unit.

For the molecule `CC/C=C\C/C=C\C/C=C\CCCCCCCC(=O)Oc1ccc(C(F)(F)F)cc1`, the inhibition at 500 µM in the data set with HCT-116 came to 37%; in the data set with MIA PaCa-2 it was 25%; in the data set with MCF7 it was 47%. In addition, the Activity in data set [1] is 4.07 10^-2No_unit.

Consider `CC/C=C\C/C=C\C/C=C\CCCCCCCC(=O)O` [LINOLENIC ACID], for which the inhibition at 500 µM in the data set on HCT-116 was determined as 36%; in the data set on MIA PaCa-2 it was 25%; in the data set with MCF7, 50%. For the same molecule, the Activity in data set [1] is listed as 4.19 10^-2No_unit.
